According to ChEMBL document CHEMBL4393711, “Discovery and synthesis of novel indole derivatives-containing 3-methylenedihydrofuran-2(3H)-one as irreversible LSD1 inhibitors” (Eur J Med Chem, 2019):

Target: T1, Lysine-specific histone demethylase 1A (Homo sapiens, UniProt O60341)
Experiment: Inhibition of recombinant LSD1 (unknown origin) (catalytic domain 157 to 852 residues) expressed in Escherichia coli BL21 using H3K4me1 as substrate incubated for 1 hr by horse-radish peroxidase/amplex red-based fluorescence method
Settings: not given

| SMILES | IC50 |
| --- | --- |
| C=C1C(=O)OCC1C(O)c1cn(Cc2ncccn2)c2ccc(Cl)cc12 (stereo unspecified) | > 10 µM |
| C=C1C(=O)OCC1C(O)c1cn(Cc2ccc(Cl)cn2)c2ccc(Cl)cc12 (stereo unspecified) | > 10 µM |
| O=C(c1ccco1)c1cn(Cc2ccc(F)cc2)c2ccc(Cl)cc12 | > 10 µM |
| C=C1C(=O)OCC1C(O)c1cn(Cc2ccc(Cl)cc2)c2c(Cl)cccc12 (stereo unspecified) | > 10 µM |
| C=C1C(=O)OCC1C(O)c1cn(Cc2ccc(Cl)cc2)c2cccc(OC)c12 (stereo unspecified) | > 10 µM |
| C=C1C(=O)OCC1C(O)c1cn(Cc2nc(C)c3ccccc3n2)c2ccc(Cl)cc12 (stereo unspecified) | > 10 µM |
| C=C1C(=O)OCC1C(O)c1cn(Cc2ccc(Cl)cc2)c2c(OC)cccc12 (stereo unspecified) | > 10 µM |
| C=C1C(=O)OCC1C(O)c1cn(C(=O)c2c(C)noc2C)c2ccc(Cl)cc12 (stereo unspecified) | > 10 µM |
| C=C1C(=O)OCC1C(O)c1cn(C(=O)/C=C/c2ccccc2)c2ccc(Cl)cc12 (stereo unspecified) | > 10 µM |
| O=C(/C=C/c1cccs1)c1cn(Cc2ccc(F)cc2)c2ccc(Cl)cc12 | > 10 µM |
| C=C1C(=O)OCC1C(O)c1cn(Cc2ccc(Cl)s2)c2ccc(Cl)cc12 (stereo unspecified) | > 10 µM |
| C=C1C(=O)OCC1C(O)c1cn(Cc2csc(N)n2)c2ccc(Cl)cc12 (stereo unspecified) | > 10 µM |
| C=C1C(=O)OCC1C(O)c1cn(C(=O)c2sccc2C)c2ccc(Cl)cc12 (stereo unspecified) | > 10 µM |
| CC(=O)c1cn(Cc2ccc(F)cc2)c2ccc(Cl)cc12 | > 10 µM |
| C=C1C(=O)OCC1C(O)c1cn(Cc2c(C)noc2C)c2ccc(Cl)cc12 (stereo unspecified) | > 10 µM |
| C=C1C(=O)OCC1C(O)c1cn(Cc2ccc(Cl)cc2)c2ccc(Cl)cc12 (stereo unspecified) | > 10 µM |
| O=C(c1ccccc1)c1cn(Cc2ccc(F)cc2)c2ccc(Cl)cc12 | > 10 µM |
| C=C1C(=O)OCC1C(O)c1cn(C(=O)c2cccnc2Cl)c2ccc(Cl)cc12 (stereo unspecified) | > 10 µM |
| C=C1C(=O)OCC1C(O)c1cn(C(=O)C2CC2)c2ccc(Cl)cc12 (stereo unspecified) | > 10 µM |
| C=C1C(=O)OCC1C(O)c1cn(Cc2nc3ccccc3o2)c2ccc(Cl)cc12 (stereo unspecified) | > 10 µM |
| O=C(c1ccnc(Cl)c1)c1cn(Cc2ccc(F)cc2)c2ccc(Cl)cc12 | > 10 µM |

| SMILES | IC50 |
| --- | --- |
| C=C1C(=O)OCC1C(O)c1cn(Cc2ccc(Cl)cc2)c2cc(OC)ccc12 (stereo unspecified) | > 10 µM |
| O=C(/C=C/c1ccco1)c1cn(Cc2ccc(F)cc2)c2ccc(Cl)cc12 | > 10 µM |
| O=C(c1ccncc1)c1cn(Cc2ccc(F)cc2)c2ccc(Cl)cc12 | > 10 µM |
| Cc1ccc(C(=O)c2cn(Cc3ccc(F)cc3)c3ccc(Cl)cc23)cc1 | > 10 µM |
| O/N=C(\c1ccccc1)c1cn(Cc2ccc(F)cc2)c2ccc(Cl)cc12 | > 10 µM |
| CC1=CCSC1C(=O)c1cn(Cc2ccc(F)cc2)c2ccc(Cl)cc12 (stereo unspecified) | > 10 µM |
| C=C1C(=O)OCC1C(O)c1cn(Cc2ccc(Cl)cc2)c2ccc(OC)cc12 (stereo unspecified) | > 10 µM |
| O=C(c1ccc(F)cc1)c1cn(Cc2ccc(F)cc2)c2ccc(Cl)cc12 | > 10 µM |
| C=C1C(=O)OCC1C(O)c1cn(Cc2nc3ccccc3s2)c2ccc(Cl)cc12 (stereo unspecified) | > 10 µM |
| C=C1C(=O)OCC1C(O)c1cn(Cc2cncc(C)c2)c2ccc(Cl)cc12 (stereo unspecified) | > 10 µM |
| C=C1C(=O)OCC1C(O)c1cn(C(=O)c2ccco2)c2ccc(Cl)cc12 (stereo unspecified) | > 10 µM |
| OC(c1ccccc1)c1cn(Cc2ccc(F)cc2)c2ccc(Cl)cc12 (stereo unspecified) | > 10 µM |
| C=C1C(=O)OCC1C(O)c1cn(Cc2cnc(Cl)s2)c2ccc(Cl)cc12 (stereo unspecified) | > 10 µM |
| C=C1C(=O)OCC1C(O)c1cn(CC2CC2)c2ccc(Cl)cc12 (stereo unspecified) | > 10 µM |
| C=C1C(=O)OCC1C(O)c1cn(Cc2ccncc2)c2ccc(Cl)cc12 (stereo unspecified) | > 10 µM |
| C=C1C(=O)OCC1C(O)c1cn(Cc2ccc(Cl)cc2)c2cc(Cl)ccc12 (stereo unspecified) | > 10 µM |
| C=C1C(=O)OCC1C(O)c1cn(Cc2ccc(Cl)cc2)c2ccc(F)cc12 (stereo unspecified) | > 10 µM |
| C=C1C(=O)OCC1C(O)c1cn(Cc2nc3ccccc3[nH]2)c2ccc(Cl)cc12 (stereo unspecified) | > 10 µM |
| C=C1C(=O)OCC1C(O)c1cn(Cc2ccc(Cl)cc2)c2cccc(Cl)c12 (stereo unspecified) | > 10 µM |
| O=C(c1cn(Cc2ccc(F)cc2)c2ccc(Cl)cc12)C1CC1 | > 10 µM |

System: THP-1
Experiment: Antiproliferative activity against human THP1 cells assessed as reduction in cell viability incubated for 5 days by MTT assay
Settings: THP-1, 120 h

| SMILES | IC50 |
| --- | --- |
| C=C1C(=O)OCC1C(O)c1cn(Cc2ccc(F)cc2)c2ccc(Cl)cc12 (stereo unspecified) | 1.2 µM |

System: THP-1
Experiment: Inhibition of colony formation in human THP1 cells incubated for 2 weeks by microscopic analysis
Assay type: functional, cell-based
Settings: not given

| SMILES | inhibition |
| --- | --- |
| c1ccc([C@@H]2C[C@H]2NC2CCNCC2)cc1 | Dose-dependent effect |
| C=C1C(=O)OCC1C(O)c1cn(Cc2ccc(F)cc2)c2ccc(Cl)cc12 (stereo unspecified) | Dose-dependent effect |

System: THP-1
Experiment: Induction of cellular morphology change in human THP1 cells assessed as blurred cell membrane boundaries with chromatin shrinkage incubated for 3 days by hematoxylin and eosin staining based microscopic analysis
Assay type: functional
Settings: not given

| SMILES | Activity |
| --- | --- |
| c1ccc([C@@H]2C[C@H]2NC2CCNCC2)cc1 | Dose-dependent effect |
| C=C1C(=O)OCC1C(O)c1cn(Cc2ccc(F)cc2)c2ccc(Cl)cc12 (stereo unspecified) | Dose-dependent effect |

Target: T1, Lysine-specific histone demethylase 1A
Settings: not given

| SMILES | Ka |
| --- | --- |
| c1ccc([C@@H]2C[C@H]2NC2CCNCC2)cc1 | 2.6 ×10³ /M.s |

Target: T1, Lysine-specific histone demethylase 1A
Settings: not given
Remark: another data set of the same source

| SMILES | Kdiss |
| --- | --- |
| c1ccc([C@@H]2C[C@H]2NC2CCNCC2)cc1 | 1.11 ×10⁻¹ /s |

Target: T1, Lysine-specific histone demethylase 1A
Settings: not given
Remark: another data set of the same source

| SMILES | ΔTm |
| --- | --- |
| c1ccc([C@@H]2C[C@H]2NC2CCNCC2)cc1 | 2.21 °C |

Target: T1, Lysine-specific histone demethylase 1A
Settings: not given
Remark: another data set of the same source

| SMILES | ΔTm |
| --- | --- |
| c1ccc([C@@H]2C[C@H]2NC2CCNCC2)cc1 | 4.28 °C |

Target: T1, Lysine-specific histone demethylase 1A
Settings: not given
Remark: another data set of the same source

| SMILES | ΔTm |
| --- | --- |
| c1ccc([C@@H]2C[C@H]2NC2CCNCC2)cc1 | 8.37 °C |
